In patent publication US20220227737A1, “NOVEL OXALYL PIPERAZINES ACTIVE AGAINST THE HEPATITIS B VIRUS (HBV)” (AiCuris GmbH & Co. KG, priority 2019, published 2022) one finds IC50 data, which are given here for 28 compounds.

pIC50: −log10 of the molar value.

The target of the assay is T1, C-terminal truncated core protein (HBV core dimer, BODIPY-FL labelled) (UniProt P03146).
T1 construct: fused on or other part: One added cysteine at position 150, labelled with BODIPY-FL maleimide; The C-terminal arginine-rich domain is absent
T1 sequence (P03146 whole entry, the tested form may be a part): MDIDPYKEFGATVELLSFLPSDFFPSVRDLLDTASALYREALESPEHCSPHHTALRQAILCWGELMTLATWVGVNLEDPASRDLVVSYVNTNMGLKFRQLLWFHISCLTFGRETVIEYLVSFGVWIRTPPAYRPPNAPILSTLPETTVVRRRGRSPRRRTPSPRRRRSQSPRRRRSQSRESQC
The assay is described as follows: Biochemical capsid assembly assay (fluorescence quenching). On the procedure: Biochemical Capsid Assembly Assay
The screening for assembly effector activity was done based on a fluorescence quenching assay published by Zlotnick et al. (2007). The C-terminal truncated core protein containing 149 amino acids of the N-terminal assembly domain fused to a unique cysteine residue at position 150 and was expressed in E. coli using the pET expression system (Merck Chemicals, Darmstadt). Purification of core dimer protein was performed using a sequence of size exclusion chromatography steps. In brief, the cell pellet from 1 L BL21 (DE3) Rosetta2 culture expressing the coding sequence of core protein cloned NdeI/XhoI into expression plasmid pET21b was treated for 1 h on ice with a native lysis buffer (Qproteome Bacterial Protein Prep Kit; Qiagen, Hilden). After a centrifugation step the supernatant was precipitated during 2 h stirring on ice with 0.23 g/ml of solid ammonium sulfate. Following further centrifugation the resulting pellet was resolved in buffer A (100 mM Tris, pH 7.5; 100 mM NaCl; 2 mM DTT) and was subsequently loaded onto a buffer A equilibrated CaptoCore 700 column (GE HealthCare, Frankfurt). The column flow through containing the assembled HBV capsid was dialyzed against buffer N (50 mM NaHCO3 pH 9.6; 5 mM DTT) before urea was added to a final concentration of 3M to dissociate the capsid into core dimers for 1.5 h on ice. The protein solution was then loaded onto a 1 L Sephacryl 5300 column. After elution with buffer N core dimer containing fractions were identified by SDS-PAGE and subsequently pooled and dialyzed against 50 mM HEPES pH 7.5; 5 mM DTT. To improve the assembly capacity of the purified core dimers a second round of assembly and disassembly starting with the addition of 5 M NaCl and including the size exclusion chromatography steps described above was performed. From the last chromatography step core dimer containing fractions were pooled and stored in aliquots at concentrations between 1.5 to 2.0 mg/ml at −80° C.
Immediately before labelling the core protein was reduced by adding freshly prepared DTT in a final concentration of 20 mM. After 40 min incubation on ice storage buffer and DTT was removed using a Sephadex G-25 column (GE HealthCare, Frankfurt) and 50 mM HEPES, pH 7.5. For labelling 1.6 mg/ml core protein was incubated at 4° C. and darkness overnight with BODIPY-FL maleimide (Invitrogen, Karlsruhe) in a final concentration of 1 mM. After labelling the free dye was removed by an additional desalting step using a Sephadex G-25 column. Labelled core dimers were stored in aliquots at 4° C. In the dimeric state the fluorescence signal of the labelled core protein is high and is quenched during the assembly of the core dimers to high molecular capsid structures. The screening assay was performed in black 384 well microtiter plates in a total assay volume of 10 μl using 50 mM HEPES pH 7.5 and 1.0 to 2.0 μM labelled core protein. Each screening compound was added in 8 different concentrations using a 0.5 log-unit serial dilution starting at a final concentration of 100 μM, 31.6 μM or 10 μM, In any case the DMSO concentration over the entire microtiter plate was 0.5%. The assembly reaction was started by the injection of NaCl to a final concentration of […] which induces the assembly process to approximately 25% of the maximal quenched signal. […] after starting the reaction the fluorescence signal was measured using a Clariostar plate reader (BMG Labtech, Ortenberg) with an excitation of 477 nm and an emission of 525 nm. As 100% and 0% assembly control HEPES buffer containing 2.5 M and 0 M NaCl was used. Experiments were performed thrice in triplicates. EC50 values were calculated by non-linear regression analysis using the Graph Pad Prism 6 software (GraphPad Software, La Jolla, USA).
For `CC1(NC(=O)C(=O)N2CCN(C(=O)c3cc4ccccc4[nH]3)CC2)CCOCC1` [Example 39, 2-(4-(1H-indole-2-carbonyl)piperazin-1-yl)-N-(4-methyltetrahydro-2H-pyran-4-yl)-2-oxoacetamide], the pIC50 (usually −log10 of the IC50, conventionally taken in molar units) is more than 5.30.

`CC1(NC(=O)C(=O)N2CCN(C(=O)c3cc4ccccc4[nH]3)CC2)CCCCCC1` [Example 66, 2-[4-(1H-indole-2-carbonyl)piperazin-1-yl]-N-(1-methylcycloheptyl)-2-oxoacetamide] gave a pIC50 of 5.00 to 5.30. In the case of `CC(C)(C)NC(=O)C(=O)N1CCN(C(=O)c2cc3c(F)cc(F)cc3[nH]2)CC1` [Example 43, N-(tert-butyl)-2-(4-(4,6-difluoro-1H-indole-2-carbonyl)piperazin-1-yl)-2-oxoacetamide], the pIC50 is more than 5.30. Take `O=C(N[C@H]1CC[C@@H](O)CC1)C(=O)N1CCN(C(=O)c2cc3ccccc3[nH]2)CC1` [Example 16, 2-(4-(1H-indole-2-carbonyl)piperazin-1-yl)-N-((1s,4s)-4-hydroxycyclohexyl)-2-oxoacetamide]: the pIC50 is 5.00 to 5.30.

Compound `C[C@H](O)CNC(=O)C(=O)N1CCN(C(=O)c2cc3ccccc3[nH]2)CC1` [Example 36, (S)-2-(4-(1H-indole-2-carbonyl)piperazin-1-yl)-N-(2-hydroxypropyl)-2-oxoacetamide] had a pIC50 of more than 5.30. On to `CC(C)(CCCO)NC(=O)C(=O)N1CCN(C(=O)c2cc3ccccc3[nH]2)CC1` [Example 68, N-(5-hydroxy-2-methylpentan-2-yl)-2-[4-(1H-indole-2-carbonyl)piperazin-1-yl]-2-oxoacetamide], for which the pIC50 is more than 5.30. `CNC(=O)C1(CNC(=O)C(=O)N2CCN(C(=O)c3cc4ccccc4[nH]3)CC2)CCC1` [Example 22, 1-((2-(4-(1H-indole-2-carbonyl)piperazin-1-yl)-2-oxoacetamido)methyl)-N-methylcyclobutane-1-carboxamide] showed a pIC50 of more than 4.00.

As for `C#CCNC(=O)C(=O)N1CCN(C(=O)c2cc3ccccc3[nH]2)CC1` [Example 15, 2-(4-(1H-indole-2-carbonyl)piperazin-1-yl)-2-oxo-N-(prop-2-yn-1-yl)acetamide], the negative-log IC50 (pIC50) was more than 5.30.

The compound `CC(C)(C)NC(=O)C(=O)N1CCCN(C(=O)c2cc3ccccc3[nH]2)CC1` [Example 51, 2-(4-(1H-indole-2-carbonyl)-1,4-diazepan-1-yl)-N-(tert-butyl)-2-oxoacetamide] gave a pIC50 of more than 4.00. In turn, `O=C(NC1CCOCC1)C(=O)N1CCN(C(=O)c2cc3ccccc3[nH]2)CC1` [Example 40, 2-(4-(1H-indole-2-carbonyl)piperazin-1-yl)-2-oxo-N-(tetrahydro-2H-pyran-4-yl)acetamide] had a pIC50 of 5.00 to 5.30. On to `CC(C)(C)NC(=O)C(=O)N1CCN(C(=O)c2cc3cc(F)c(F)cc3[nH]2)CC1` [Example 42, N-tert-butyl-2-[4-(5,6-difluoro-1H-indole-2-carbonyl)piperazin-1-yl]-2-oxoacetamide], for which the pIC50 was 5.00 to 5.30.

As for `CCCCNC(=O)C(=O)N1CCN(C(=O)c2cc3cc(F)ccc3[nH]2)CC1` [Example 27, N-butyl-2-(4-(5-fluoro-1H-indole-2-carbonyl)piperazin-1-yl)-2-oxoacetamide], the pIC50 was more than 5.30. For `O=C(N[C@H]1C[C@H](O)C1)C(=O)N1CCN(C(=O)c2cc3ccccc3[nH]2)CC1` [Example 17, 2-(4-(1H-indole-2-carbonyl)piperazin-1-yl)-N-((1 r,3 r)-3-hydroxycyclobutyl)-2-oxoacetamide], the pIC50 was 5.00 to 5.30. In turn, `Cc1c(F)ccc2[nH]c(C(=O)N3CCN(C(=O)C(=O)NC(C)(C)C)CC3)cc12` [Example 46, N-(tert-butyl)-2-(4-(5-fluoro-4-methyl-1H-indole-2-carbonyl)piperazin-1-yl)-2-oxoacetamide] gave a pIC50 of 5.00 to 5.30. The compound `O=C1CCC(CNC(=O)C(=O)N2CCN(C(=O)c3cc4ccccc4[nH]3)CC2)N1` (stereo not shown) [Example 14, 2-[4-(1H-indole-2-carbonyl)piperazin-1-yl]-2-oxo-N-[(5-oxopyrrolidin-2-yl)methyl]acetamide] had a pIC50 of more than 4.00.

Take `O=C(NC1CCCCCC1)C(=O)N1CCN(C(=O)c2cc3ccccc3[nH]2)CC1` [Example 70, N-cycloheptyl-2-[4-(1H-indole-2-carbonyl)piperazin-1-yl]-2-oxoacetamide]: the pIC50 is 5.00 to 5.30. Take `C[C@H](NC(=O)C(=O)N1CCN(C(=O)c2cc3ccccc3[nH]2)CC1)C(F)(F)F` [Example 37, 2-[4-(1H-indole-2-carbonyl)piperazin-1-yl]-2-oxo-N-[(2S)-1,1,1-trifluoropropan-2-yl]acetamide]: the pIC50 was more than 5.30. Compound `O=C1CC2(CC(CNC(=O)C(=O)N3CCN(C(=O)c4cc5ccccc5[nH]4)CC3)C2)N1` (stereo not shown) [Example 19, 2-(4-(1H-indole-2-carbonyl)piperazin-1-yl)-2-oxo-N-((2-oxo-1-azaspiro[3.3]heptan-6-yl)methyl)acetamide] had a pIC50 of more than 4.00.

In the case of `C[C@@H]1CN(C(=O)C(=O)NC(C)(C)C)CCN1C(=O)c1cc2ccccc2[nH]1` [Example 50, (R)-2-(4-(1H-indole-2-carbonyl)-3-methylpiperazin-1-yl)-N-(tert-butyl)-2-oxoacetamide], the pIC50 is more than 5.30. `Cc1cccc2[nH]c(C(=O)N3CCN(C(=O)C(=O)NC(C)(C)C)CC3)cc12` [Example 44, N-(tert-butyl)-2-(4-(4-methyl-1H-indole-2-carbonyl)piperazin-1-yl)-2-oxoacetamide] had a pIC50 of more than 5.30. Compound `C[C@@H](NC(=O)C(=O)N1CCN(C(=O)c2cc3ccccc3[nH]2)CC1)C(F)(F)F` [Example 38, (R)-2-(4-(1H-indole-2-carbonyl)piperazin-1-yl)-2-oxo-N-(1,1,1-trifluoropropan-2-yl)acetamide] gave a pIC50 of more than 5.30. In the case of `O=C(NCC1(O)CC1)C(=O)N1CCN(C(=O)c2cc3ccccc3[nH]2)CC1` [Example 18, 2-(4-(1H-indole-2-carbonyl)piperazin-1-yl)-N-((1-hydroxycyclopropyl)methyl)-2-oxoacetamide], the pIC50 was more than 4.00. Regarding `NC(=O)C1(CNC(=O)C(=O)N2CCN(C(=O)c3cc4ccccc4[nH]3)CC2)CC(F)(F)C1` [Example 21, 1-((2-(4-(1H-indole-2-carbonyl)piperazin-1-yl)-2-oxoacetamido)methyl)-3,3-difluorocyclobutane-1-carboxamide], the pIC50 is 5.00 to 5.30. Take `CCC(C)(C)NC(=O)C(=O)N1CCN(C(=O)c2cc3ccccc3[nH]2)CC1` [Example 67, 2-[4-(1H-indole-2-carbonyl)piperazin-1-yl]-N-(2-methylbutan-2-yl)-2-oxoacetamide]: the pIC50 is more than 5.30. As for `O=C(N[C@H]1CC[C@H](O)CC1)C(=O)N1CCN(C(=O)c2cc3ccccc3[nH]2)CC1` [Example 33, 2-(4-(1H-indole-2-carbonyl)piperazin-1-yl)-N-((1r,4r)-4-hydroxycyclohexyl)-2-oxoacetamide], the pIC50 is more than 4.00.

Turning to `C[C@@H]1CN(C(=O)C(=O)NC(C)(C)C)[C@@H](C)CN1C(=O)c1cc2ccccc2[nH]1` [Example 48, N-tert-butyl-2-[(2S,5R)-4-(1H-indole-2-carbonyl)-2,5-dimethylpiperazin-1-yl]-2-oxoacetamide], the pIC50 is more than 5.30.

For the compound `COCC1(NC(=O)C(=O)N2CCN(C(=O)c3cc4ccccc4[nH]3)CC2)CCC1` [Example 41, 2-(4-(1H-indole-2-carbonyl)piperazin-1-yl)-N-(1-(methoxymethyl)cyclobutyl)-2-oxoacetamide], the negative-log IC50 (pIC50) was more than 5.30. Regarding `C[C@H]1CN(C(=O)C(=O)NC(C)(C)C)CCN1C(=O)c1cc2ccccc2[nH]1` [Example 49, (S)-2-(4-(1H-indole-2-carbonyl)-3-methylpiperazin-1-yl)-N-(tert-butyl)-2-oxoacetamide], the pIC50 was more than 4.00.
